Results reported in patent US12350270B2, “Antimalarial agents” (Merck Sharp & Dohme LLC, priority 2019, dated 2025).

System: parasites (ring stage, in human red blood cell culture)
Test: Parasite LDH growth assay (antiparasite potency, Parasite Assay)
Assay type: cell-based, Plasmodium falciparum
Conditions: 0.7% rings, 2% haematocrit, 72 hours at 37° C., LDH readout of parasite growth
How it was run: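 Growth was read by an LDH assay after a freeze–thaw cycle (−80 °C overnight, 4 h thaw at RT). Before that, parasites grew with compound for 72 h at 37 °C under gassed, humidified conditions. The input was a ring-stage culture adjusted to 0.7% parasitemia and 2% haematocrit in serum (5%)/albumax (0.5%)-supplemented RPMI-Hepes.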

| SMILES | EC50 [nM] |
| --- | --- |
| COCC1(C)Oc2ccc(C(=O)N[C@@H]3c4ccccc4OC(C)(C)[C@H]3O)cc2C1N1C(=N)NC(C)(C)CC1=O (stereo partly drawn) [Example 256, N-[(3S,4R)-3-hydroxy-2,2-dimethyl-chroman-4-yl]-3-(2-imino-4,4-dimethyl-6-oxo-hexahydropyrimidin-1-yl)-2-(methoxymethyl)-2-methyl-3H-benzofuran-5-carboxamide] | 8.9 |
| COCC1(C)Oc2ccc(C(=O)N[C@@H]3c4ccccc4OC(C)(C)[C@H]3O)cc2C1N1C(=N)NC(C)(C)CC1=O (stereo partly drawn) [Example 257, N-[(3S,4R)-3-hydroxy-2,2-dimethyl-chroman-4-yl]-3-(2-imino-4,4-dimethyl-6-oxo-hexahydropyrimidin-1-yl)-2-(methoxymethyl)-2-methyl-3H-benzofuran-5-carboxamide] | 189 |
| CCOC(=O)C1(C)Oc2ccccc2C1NC(=O)c1ccc2c(c1)[C@H](N1C(=N)NC(CC)(CC)CC1=O)CCO2 (stereo partly drawn) [Example 275, ethyl 3-[[(4R)-4-(4,4-diethyl-2-imino-6-oxo-hexahydropyrimidin-1-yl)chromane-6-carbonyl]amino]-2-methyl-3H-benzofuran-2-carboxylate] | 25.7 |

Same assay, conditions: Plasmodium falciparum, Erythrocyte, 72 h, 0.7% rings, 2% haematocrit, 72 hours at 37° C., LDH readout of parasite growth

| SMILES | EC50 [nM] |
| --- | --- |
| CCC1(CC)CC(=O)N([C@@H]2CCCOc3ccc(C(=O)N[C@@H]4c5ccccc5OC(C)(C)[C@H]4O)cc32)C(=N)N1 [Example 248, (5R)-5-(4,4-diethyl-2-imino-6-oxo-hexahydropyrimidin-1-yl)-N-[(3S,4R)-3-hydroxy-2,2-dimethyl-chroman-4-yl]-2,3,4,5-tetrahydro-1-benzoxepine-7-carboxamide] | 0.8 |
| CCC1(CC)CC(=O)N([C@H]2c3cc(C(=O)N[C@@H]4c5ccccc5CC[C@H]4O)ccc3O[C@@]2(C)COC)C(=N)N1 [Example 249, (2R,3S)-3-(4,4-diethyl-2-imino-6-oxo-hexahydropyrimidin-1-yl)-N-[(1R,2R)-2-hydroxytetralin-1-yl]-2-(methoxymethyl)-2-methyl-3H-benzofuran-5-carboxamide] | 1.1 |
| CCC1(CC)CC(=O)N([C@H]2c3cc(C(=O)N[C@H]4c5ccccc5CC[C@@H]4O)ccc3O[C@@]2(C)COC)C(=N)N1 [Example 250, (2R,3S)-3-(4,4-diethyl-2-imino-6-oxo-hexahydropyrimidin-1-yl)-N-[(1S,2S)-2-hydroxytetralin-1-yl]-2-(methoxymethyl)-2-methyl-3H-benzofuran-5-carboxamide] | 219 |
| CC[C@]1(C)CC(=O)N([C@H]2c3cc(C(=O)N[C@@H]4c5ccccc5OC[C@@]4(C)O)ccc3OC[C@@H]2COC)C(=N)N1 [Example 252, (3S,4R)-4-[(4R)-4-ethyl-2-imino-4-methyl-6-oxo-hexahydropyrimidin-1-yl]-N-[(3S,4R)-3-hydroxy-3-methyl-chroman-4-yl]-3-(methoxymethyl)chromane-6-carboxamide] | 2.1 |
| CCC1(CC)CC(=O)N([C@H]2c3cc(C(=O)N[C@@H]4c5ccccc5OC[C@]4(C)O)ccc3OC[C@@H]2OC)C(=N)N1 [Example 253, (3R,4S)-4-(4,4-diethyl-2-imino-6-oxo-hexahydropyrimidin-1-yl)-N-[(3R,4R)-3-hydroxy-3-methyl-chroman-4-yl]-3-methoxy-chromane-6-carboxamide] | 4.3 |
| CCC1(CC)CC(=O)N([C@H]2c3cc(C(=O)N[C@@H]4c5ccccc5OC[C@@]4(C)O)ccc3OC[C@@H]2OC)C(=N)N1 [Example 254, (3R,4S)-4-(4,4-diethyl-2-imino-6-oxo-hexahydropyrimidin-1-yl)-N-[(3S,4R)-3-hydroxy-3-methyl-chroman-4-yl]-3-methoxy-chromane-6-carboxamide] | 3.4 |
| CC[C@]1(C)CC(=O)N([C@H]2c3cc(C(=O)N[C@@H]4c5ccccc5OC(C)(C)[C@H]4O)ccc3OC[C@@H]2OC)C(=N)N1 [Example 255, (3R,4S)-4-[(4R)-4-ethyl-2-imino-4-methyl-6-oxo-hexahydropyrimidin-1-yl]-N-[(3S,4R)-3-hydroxy-2,2-dimethyl-chroman-4-yl]-3-methoxy-chromane-6-carboxamide] | 3.3 |
| CCC1(CC)CC(=O)N([C@@H]2CCS(=O)(=O)c3ccc(C(=O)N[C@@H]4c5ccccc5C[C@@]4(C)O)cc32)C(=N)N1 [Example 260, (4R)-4-(4,4-diethyl-2-imino-6-oxo-hexahydropyrimidin-1-yl)-N-[(1R,2R)-2-hydroxy-2-methyl-indan-1-yl]-1,1-dioxo-3,4-dihydro-2H-thiochromene-6-carboxamide] | 8.2 |
| CCC1(CC)CC(=O)N([C@H]2CCS(=O)(=O)c3ccc(C(=O)N[C@@H]4c5ccccc5C[C@@]4(C)O)cc32)C(=N)N1 [Example 261, (4S)-4-(4,4-diethyl-2-imino-6-oxo-hexahydropyrimidin-1-yl)-N-[(1R,2R)-2-hydroxy-2-methyl-indan-1-yl]-1,1-dioxo-3,4-dihydro-2H-thiochromene-6-carboxamide] | 133 |
| CCC1(CC)CC(=O)N([C@@H]2CCS(=O)(=O)c3ccc(C(=O)N[C@@H]4c5ccccc5C[C@]4(C)O)cc32)C(=N)N1 [Example 262, (4R)-4-(4,4-diethyl-2-imino-6-oxo-hexahydropyrimidin-1-yl)-N-[(1R,2S)-2-hydroxy-2-methyl-indan-1-yl]-1,1-dioxo-3,4-dihydro-2H-thiochromene-6-carboxamide] | 7.4 |
| CCC1(CC)CC(=O)N([C@H]2CCS(=O)(=O)c3ccc(C(=O)N[C@@H]4c5ccccc5C[C@]4(C)O)cc32)C(=N)N1 [Example 263, (4S)-4-(4,4-diethyl-2-imino-6-oxo-hexahydropyrimidin-1-yl)-N-[(1R,2S)-2-hydroxy-2-methyl-indan-1-yl]-1,1-dioxo-3,4-dihydro-2H-thiochromene-6-carboxamide] | 74.8 |
| CCC1(CC)CC(=O)N([C@@H]2CCOc3ccc(C(=O)NC(CCc4ccccc4)c4ccccc4)cc32)C(=N)N1 (stereo partly drawn) [Example 264, (4R)-4-(4,4-diethyl-2-imino-6-oxo-hexahydropyrimidin-1-yl)-N-(1,3-diphenylpropyl)chromane-6-carboxamide] | 3.3 |
| CC1(C)CC(=O)N([C@@H]2CCS(=O)(=O)c3ccc(C(=O)N[C@@H]4c5ccccc5OC(C)(C)[C@H]4O)cc32)C(=N)N1 [Example 265, (4R)-N-[(3S,4R)-3-hydroxy-2,2-dimethyl-chroman-4-yl]-4-(2-imino-4,4-dimethyl-6-oxo-hexahydropyrimidin-1-yl)-1,1-dioxo-3,4-dihydro-2H-thiochromene-6-carboxamide] | 31.1 |
| CCC1(CC)CC(=O)N([C@@H]2CCOc3ccc(C(=O)N[C@@H]4c5cc(Cl)ccc5OC[C@@]4(C)O)cc32)C(=N)N1 [Example 266, (4R)-N-[(3S,4R)-6-chloro-3-hydroxy-3-methyl-chroman-4-yl]-4-(4,4-diethyl-2-imino-6-oxo-hexahydropyrimidin-1-yl)chromane-6-carboxamide] | 2.6 |
| CC[C@]1(C)CC(=O)N([C@@H]2CCOc3ccc(C(=O)N[C@@H]4C[C@@H](COC(F)F)Oc5ccccc54)cc32)C(=N)N1 [Example 267, (4R)-N-[(2S,4R)-2-(difluoromethoxymethyl)chro-man-4-yl]-4-[(4R)-4-ethyl-2-imino-4-methyl-6-oxo-hexahydropyrimidin-1-yl]chromane-6-carboxamide] | 24 |
| CC[C@]1(C)CC(=O)N([C@@H]2CCOc3ccc(C(=O)N[C@@H]4C[C@H](COC(F)F)Oc5ccccc54)cc32)C(=N)N1 [Example 268, (4R)-N-[(2R,4R)-2-(difluoromethoxymethyl)chro-man-4-yl]-4-[(4R)-4-ethyl-2-imino-4-methyl-6-oxo-hexahydropyrimidin-1-yl]chromane-6-carboxamide] | 25 |
| CC[C@]1(C)CC(=O)N([C@@H]2CCOc3ccc(C(=O)N[C@H]4C[C@H](COC(F)F)Oc5ccccc54)cc32)C(=N)N1 [Example 269, (4R)-N-[(2R,4S)-2-(difluoromethoxymethyl)chro-man-4-yl]-4-[(4R)-4-ethyl-2-imino-4-methyl-6-oxo-hexahydropyrimidin-1-yl]chromane-6-carboxamide] | 2.9 |
| CC[C@]1(C)CC(=O)N([C@@H]2CCOc3ccc(C(=O)N[C@H]4C[C@@H](COC(F)F)Oc5ccccc54)cc32)C(=N)N1 [Example 270, (4R)-N-[(2S,4S)-2-(difluoromethoxymethyl)chro-man-4-yl]-4-[(4R)-4-ethyl-2-imino-4-methyl-6-oxo-hexahydropyrimidin-1-yl]chromane-6-carboxamide] | 1.8 |
| CCC1(CC)CC(=O)N([C@@H]2CCOc3ccc(C(=O)NC4c5ccc(C(F)(F)F)cc5CC4N)cc32)C(=N)N1 (stereo partly drawn) [Example 271, (4R)-N-[2-amino-5-(trifluoromethyl)indan-1-yl]-4-(4,4-diethyl-2-imino-6-oxo-hexahydropyrimidin-1-yl)chromane-6-carboxamide] | 182 |
| CC1(C)CC(=O)N([C@@H]2CCOc3ccc(C(=O)N[C@@H]4c5cc(Cl)cc(Cl)c5OC[C@@]4(C)O)cc32)C(=N)N1 [Example 273, (4R)-N-[(3S,4R)-6,8-dichloro-3-hydroxy-3-methyl-chroman-4-yl]-4-(2-imino-4,4-dimethyl-6-oxo-hexahydropyrimidin-1-yl)chromane-6-carboxamide] | 7.8 |
| CCC1(CC)CC(=O)N(C2CC(C(=O)N(C)C)Oc3ccc(C(=O)N[C@@H]4c5ccccc5C[C@H]4O)cc32)C(=N)N1 (stereo partly drawn) [Example 274, 4-(4,4-diethyl-2-imino-6-oxo-hexahydropyrimidin-1-yl)-N6-[(1R,2R)-2-hydroxyindan-1-yl]-N2,N2-dimethyl-chromane-26,-dicarboxamide] | 98.5 |
| CCC1(CC)CC(=O)N([C@H]2c3cc(C(=O)N[C@@H]4c5ccccc5OC(C)(C)[C@H]4O)ccc3CC[C@@H]2OC)C(=N)N1 [Example 276, (3S,4S)-4-(4,4-diethyl-2-imino-6-oxo-hexahydropyrimidin-1-yl)-N-[(3S,4R)-3-hydroxy-2,2-dimethyl-chroman-4-yl]-3-methoxy-tetralin-6-carboxamide] | 0.6 |
